In US9096601B2 (CSPC Zhongqi Pharmaceutical Technology (Shijiazhuang) Co., …, priority 2010, dated 2015):

Experiments:
[1] = system: non-small cell lung carcinoma cell strain HCC827; test: In-vitro tumor cell proliferation inhibition, MTT; format: cell-based, human; details: 72 hours
Method in brief: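 Cells grown in RPMI-1640 with 10% FBS, seeded overnight (HCC827 at 6×10^4 cells/ml), then exposed to graded compound concentrations for 72 h at 37 °C, 5% CO2, with 1% DMSO solvent control. MTT absorbance at 570 nm; inhibition relative to control; triplicate wells, ≥3 repeats.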

[2] = system: non-small cell lung carcinoma cell strain H1975 (EGFR L858R/T790M mutation); test: In-vitro tumor cell proliferation inhibition, MTT; format: cell-based, human; details: 72 hours
[3] = system: non-small cell lung carcinoma cell strain PC-9 (EGFR delE746-A750 deletion mutation); test: In-vitro tumor cell proliferation inhibition, MTT; format: cell-based, human; details: 72 hours
[4] = system: non-small cell lung carcinoma cell strain H292 (EGFR WT); test: In-vitro tumor cell proliferation inhibition, MTT; format: cell-based, human; details: 72 hours
FLT3 = FLT3 (Homo sapiens (Human), UniProt P36888); test: Kinase inhibitory activity, isotopic labeling (γ-33P-ATP); format: biochemical; details: compound at 10 μM
Sequence of FLT3 (P36888 27-993): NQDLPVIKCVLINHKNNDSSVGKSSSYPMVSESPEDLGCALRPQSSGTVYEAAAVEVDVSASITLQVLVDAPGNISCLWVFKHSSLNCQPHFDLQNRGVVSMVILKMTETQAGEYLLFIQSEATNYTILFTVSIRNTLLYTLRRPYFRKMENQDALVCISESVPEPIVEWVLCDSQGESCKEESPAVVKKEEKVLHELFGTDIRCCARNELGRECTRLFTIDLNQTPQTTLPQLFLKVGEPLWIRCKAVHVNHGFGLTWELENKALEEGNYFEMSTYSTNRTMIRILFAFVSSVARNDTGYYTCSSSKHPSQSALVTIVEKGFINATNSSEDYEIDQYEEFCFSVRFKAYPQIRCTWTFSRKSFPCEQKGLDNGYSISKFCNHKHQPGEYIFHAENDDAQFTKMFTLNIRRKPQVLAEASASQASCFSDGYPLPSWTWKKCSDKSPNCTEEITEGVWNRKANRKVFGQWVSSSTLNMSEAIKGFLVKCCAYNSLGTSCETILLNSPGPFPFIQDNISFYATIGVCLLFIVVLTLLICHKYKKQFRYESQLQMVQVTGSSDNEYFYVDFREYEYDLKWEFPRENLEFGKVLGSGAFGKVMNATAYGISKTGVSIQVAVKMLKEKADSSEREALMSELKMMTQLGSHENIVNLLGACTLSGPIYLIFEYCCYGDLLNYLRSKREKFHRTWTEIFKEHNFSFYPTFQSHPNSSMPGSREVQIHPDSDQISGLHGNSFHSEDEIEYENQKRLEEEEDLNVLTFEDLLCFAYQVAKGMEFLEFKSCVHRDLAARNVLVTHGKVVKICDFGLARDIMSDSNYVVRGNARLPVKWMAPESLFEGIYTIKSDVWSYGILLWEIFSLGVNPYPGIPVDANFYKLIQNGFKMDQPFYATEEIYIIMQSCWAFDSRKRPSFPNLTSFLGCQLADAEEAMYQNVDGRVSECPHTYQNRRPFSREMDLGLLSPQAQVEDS

c-SRC = c-SRC (Homo sapiens (Human), UniProt P12931); test: as above; format: biochemical; details: compound at 10 μM
BTK = BTK (Homo sapiens (Human), UniProt Q06187); test: as above; format: biochemical; details: compound at 10 μM
PDGFRα = PDGFRα (Homo sapiens (Human), UniProt P16234); test: as above; format: biochemical; details: compound at 10 μM
Sequence of PDGFRα (P16234 24-1089): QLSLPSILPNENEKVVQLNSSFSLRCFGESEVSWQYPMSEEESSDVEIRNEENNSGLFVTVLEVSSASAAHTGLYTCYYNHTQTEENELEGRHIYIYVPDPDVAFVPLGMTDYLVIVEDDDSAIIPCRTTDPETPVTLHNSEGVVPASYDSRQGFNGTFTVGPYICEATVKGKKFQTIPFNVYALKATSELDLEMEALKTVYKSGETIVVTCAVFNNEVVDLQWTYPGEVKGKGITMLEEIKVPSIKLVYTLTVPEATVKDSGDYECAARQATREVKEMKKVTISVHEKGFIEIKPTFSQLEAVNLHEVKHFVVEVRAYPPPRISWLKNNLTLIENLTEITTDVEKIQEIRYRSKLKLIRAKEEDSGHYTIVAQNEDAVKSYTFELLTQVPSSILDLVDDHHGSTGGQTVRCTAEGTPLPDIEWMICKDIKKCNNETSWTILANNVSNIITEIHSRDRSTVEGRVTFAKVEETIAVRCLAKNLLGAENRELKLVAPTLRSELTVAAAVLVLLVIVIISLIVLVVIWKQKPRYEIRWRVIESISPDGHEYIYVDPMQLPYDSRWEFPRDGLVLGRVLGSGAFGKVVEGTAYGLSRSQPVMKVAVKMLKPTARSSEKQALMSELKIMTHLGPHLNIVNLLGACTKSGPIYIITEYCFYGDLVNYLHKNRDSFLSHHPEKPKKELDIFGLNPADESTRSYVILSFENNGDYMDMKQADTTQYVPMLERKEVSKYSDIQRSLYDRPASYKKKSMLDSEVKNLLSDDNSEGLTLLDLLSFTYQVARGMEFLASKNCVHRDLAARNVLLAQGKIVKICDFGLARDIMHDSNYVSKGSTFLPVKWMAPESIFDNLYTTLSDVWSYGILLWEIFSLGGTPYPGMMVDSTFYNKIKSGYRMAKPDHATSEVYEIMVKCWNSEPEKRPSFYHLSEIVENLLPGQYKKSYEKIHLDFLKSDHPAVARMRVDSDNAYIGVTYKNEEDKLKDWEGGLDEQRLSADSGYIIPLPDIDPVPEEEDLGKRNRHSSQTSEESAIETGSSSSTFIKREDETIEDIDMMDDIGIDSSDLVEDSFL

ALK = ALK (Homo sapiens (Human), UniProt Q9UM73); test: as above; format: biochemical; details: compound at 10 μM
Sequence of ALK (Q9UM73 19-1620): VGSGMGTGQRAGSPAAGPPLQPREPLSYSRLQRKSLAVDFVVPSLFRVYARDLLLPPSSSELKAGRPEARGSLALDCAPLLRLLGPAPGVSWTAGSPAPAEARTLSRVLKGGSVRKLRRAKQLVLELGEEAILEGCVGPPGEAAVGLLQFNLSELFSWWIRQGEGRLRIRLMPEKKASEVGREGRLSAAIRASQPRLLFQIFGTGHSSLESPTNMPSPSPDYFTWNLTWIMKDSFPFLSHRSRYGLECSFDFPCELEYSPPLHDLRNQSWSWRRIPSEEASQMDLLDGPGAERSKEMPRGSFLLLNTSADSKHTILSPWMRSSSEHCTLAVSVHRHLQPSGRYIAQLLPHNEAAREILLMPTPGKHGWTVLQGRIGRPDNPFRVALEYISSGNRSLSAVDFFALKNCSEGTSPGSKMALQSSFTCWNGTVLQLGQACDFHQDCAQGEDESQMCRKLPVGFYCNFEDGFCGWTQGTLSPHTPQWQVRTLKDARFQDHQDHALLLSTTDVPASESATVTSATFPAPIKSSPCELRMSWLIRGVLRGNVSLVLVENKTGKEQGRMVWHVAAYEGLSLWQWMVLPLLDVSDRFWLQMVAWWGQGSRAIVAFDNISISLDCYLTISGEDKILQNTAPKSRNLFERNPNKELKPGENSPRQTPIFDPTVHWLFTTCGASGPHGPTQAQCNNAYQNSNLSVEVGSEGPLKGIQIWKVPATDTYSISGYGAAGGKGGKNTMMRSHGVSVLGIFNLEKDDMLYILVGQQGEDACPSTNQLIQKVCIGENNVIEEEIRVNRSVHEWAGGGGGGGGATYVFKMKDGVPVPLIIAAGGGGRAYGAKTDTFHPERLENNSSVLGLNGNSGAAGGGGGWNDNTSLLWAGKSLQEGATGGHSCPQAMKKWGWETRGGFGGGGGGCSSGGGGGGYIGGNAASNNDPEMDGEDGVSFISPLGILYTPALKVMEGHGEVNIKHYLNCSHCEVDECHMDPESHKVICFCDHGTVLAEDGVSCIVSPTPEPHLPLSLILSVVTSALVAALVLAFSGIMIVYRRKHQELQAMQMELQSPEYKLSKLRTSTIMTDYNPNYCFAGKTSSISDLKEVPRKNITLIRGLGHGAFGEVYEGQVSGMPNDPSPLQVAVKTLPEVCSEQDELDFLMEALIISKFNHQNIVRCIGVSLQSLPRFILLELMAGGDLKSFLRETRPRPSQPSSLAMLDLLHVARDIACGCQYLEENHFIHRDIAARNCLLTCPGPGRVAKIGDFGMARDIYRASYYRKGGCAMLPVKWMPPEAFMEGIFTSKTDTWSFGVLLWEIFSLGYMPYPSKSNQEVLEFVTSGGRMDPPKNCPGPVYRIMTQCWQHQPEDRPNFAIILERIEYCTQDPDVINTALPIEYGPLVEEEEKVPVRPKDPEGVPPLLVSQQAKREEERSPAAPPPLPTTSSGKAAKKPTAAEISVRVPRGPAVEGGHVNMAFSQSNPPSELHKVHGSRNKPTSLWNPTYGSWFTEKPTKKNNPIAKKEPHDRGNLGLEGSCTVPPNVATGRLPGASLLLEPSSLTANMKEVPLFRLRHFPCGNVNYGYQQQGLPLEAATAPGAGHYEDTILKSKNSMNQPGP

VEGFR2 = VEGFR2 (Homo sapiens (Human), UniProt P35968); test: as above; format: biochemical; details: ATP 90 μM (Km)
Sequence of VEGFR2 (P35968 20-1356): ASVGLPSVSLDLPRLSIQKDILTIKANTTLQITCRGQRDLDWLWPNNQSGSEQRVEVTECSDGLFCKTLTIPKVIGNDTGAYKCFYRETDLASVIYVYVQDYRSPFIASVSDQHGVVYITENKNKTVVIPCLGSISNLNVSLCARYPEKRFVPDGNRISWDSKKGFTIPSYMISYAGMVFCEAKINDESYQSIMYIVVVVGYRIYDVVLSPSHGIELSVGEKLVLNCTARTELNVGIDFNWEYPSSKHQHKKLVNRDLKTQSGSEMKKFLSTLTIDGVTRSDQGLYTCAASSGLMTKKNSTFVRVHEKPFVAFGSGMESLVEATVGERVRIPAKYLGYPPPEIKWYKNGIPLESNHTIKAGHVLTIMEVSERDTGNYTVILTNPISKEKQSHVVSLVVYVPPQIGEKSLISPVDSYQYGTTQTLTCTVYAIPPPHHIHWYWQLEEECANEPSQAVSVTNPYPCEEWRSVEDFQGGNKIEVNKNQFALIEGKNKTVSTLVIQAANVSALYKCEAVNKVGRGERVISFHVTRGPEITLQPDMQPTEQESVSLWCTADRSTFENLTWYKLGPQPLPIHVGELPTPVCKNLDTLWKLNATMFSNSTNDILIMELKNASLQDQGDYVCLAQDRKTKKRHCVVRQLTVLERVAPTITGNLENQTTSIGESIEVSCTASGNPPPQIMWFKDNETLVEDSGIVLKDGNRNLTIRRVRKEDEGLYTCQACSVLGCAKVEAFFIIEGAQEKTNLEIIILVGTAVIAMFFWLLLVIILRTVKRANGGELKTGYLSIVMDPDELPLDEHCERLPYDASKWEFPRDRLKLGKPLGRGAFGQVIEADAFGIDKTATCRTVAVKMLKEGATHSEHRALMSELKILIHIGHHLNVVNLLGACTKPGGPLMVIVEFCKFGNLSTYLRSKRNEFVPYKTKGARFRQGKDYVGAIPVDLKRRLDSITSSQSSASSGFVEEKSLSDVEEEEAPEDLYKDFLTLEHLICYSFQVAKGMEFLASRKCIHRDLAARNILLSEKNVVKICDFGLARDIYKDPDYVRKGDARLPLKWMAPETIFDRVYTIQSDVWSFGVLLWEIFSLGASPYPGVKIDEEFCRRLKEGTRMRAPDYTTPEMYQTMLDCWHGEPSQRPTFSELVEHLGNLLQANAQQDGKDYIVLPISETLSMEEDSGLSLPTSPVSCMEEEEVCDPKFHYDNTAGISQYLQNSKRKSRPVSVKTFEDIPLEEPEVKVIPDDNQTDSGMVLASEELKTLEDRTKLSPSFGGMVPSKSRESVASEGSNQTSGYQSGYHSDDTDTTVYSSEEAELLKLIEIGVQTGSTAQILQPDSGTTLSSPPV
Method in brief: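 Substrate phosphorylation by each kinase (5-10 mU) is measured through transfer of the γ-33P label from ATP in MOPS buffer, pH 7.0, containing MnCl2 and magnesium acetate. Filter-captured counts at a series of compound concentrations yield the IC50.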

Row | Structure (SMILES) | IC50 [1] | IC50 [2] | IC50 [3] | IC50 [4] | The kinase activity inhibitory rate (%) by the tested compounds at 10 μM FLT3 (FLT3) | The kinase activity inhibitory rate (%) by the tested compounds at 10 μM c-SRC (c-SRC) | The kinase activity inhibitory rate (%) by the tested compounds at 10 μM BTK (BTK) | The kinase activity inhibitory rate (%) by the tested compounds at 10 μM PDGFRα (PDGFRα) | The kinase activity inhibitory rate (%) by the tested compounds at 10 μM ALK (ALK) | IC50 (VEGFR2)
1 | CN1CCN(c2ccc(Nc3ncc4nc(Nc5ccccc5)n(C)c4n3)cc2)CC1 [Compounds 8-24] | 0.2 nM | > 10000 nM | 6 nM | 171 nM | 75% | 75% | 14% | 29% | 8% | > 1000 nM
2 | COc1cccc(Nc2nc3cnc(Nc4ccc(N5CCN(C)CC5)cc4)nc3n2C(C)C)c1 [Compounds 8-17] | 0.2 nM | 1900 nM | 2.5 nM | 29.6 nM | 86% | 99% | 100% | 72% | 35% | > 1000 nM
3 | CC(C)n1c(Nc2ccc(C(=O)Nc3cccc(F)c3)cc2)nc2cnc(Nc3ccc(N4CCN(C)CC4)cc3)nc21 [Compounds 8-22] | > 1000 nM | > 10000 nM | 2790 nM | 1730 nM | 87% | 98% | 63% | 43% | 70% | > 1000 nM
4 | CC(C)n1c(Nc2ccc(F)c(Cl)c2)nc2cnc(Nc3ccc(C(=O)NN4CCN(C)CC4)cc3)nc21 [Compound 8-2] | 1.3 nM | > 10000 nM | 558 nM | 883 nM | 78% | 99% | 98% | 84% | 63% | > 1000 nM
5 | CC(C)n1c(Nc2ccc(F)c(Cl)c2)nc2cnc(Nc3ccc(N4CCN(C)CC4)cc3)nc21 [Compounds 8-13] | 0.2 nM | 2000 nM | 0.3 nM | 6.1 nM | 89% | 31% | 45% | 90% | 78% | > 1000 nM
6 | CC(C)n1c(Nc2ccc(Br)cc2)nc2cnc(Nc3ccc(N4CCN(C)CC4)cc3)nc21 [Compounds 8-15] | 0.2 nM | > 10000 nM | 6.4 nM | 220 nM | 90% | 97% | 95% | 94% | 40% | 4 nM
7 | C#Cc1cccc(Nc2nc3cnc(Nc4ccc(N5CCN(C)CC5)cc4)nc3n2C(C)C)c1 [Compounds 8-12] | 0.2 nM | 1930 nM | 0.2 nM | 10.7 nM | 56% | 98% | 78% | 55% | 80% | 50 nM
8 | CC(C)n1c(Nc2ccccc2)nc2cnc(Nc3ccc(C(=O)NC4CCN(C)CC4)cc3)nc21 [Compounds 8-9] | 4.2 nM | > 10000 nM | 72.3 nM | 160 nM | 76% | 98% | 88% | 88% | 36% | > 1000 nM
9 | CC(C)n1c(Nc2cccc(C(F)(F)F)c2)nc2cnc(Nc3ccc(N4CCN(C)CC4)cc3)nc21 [Compounds 8-16] | 0.2 nM | 1820 nM | 16.8 nM | 129 nM | 45% | 90% | 57% | 39% | 17% | > 1000 nM
10 | CC(C)n1c(Nc2ccc(NC(=O)Nc3ccc(F)c(Cl)c3)cc2)nc2cnc(Nc3ccc(N4CCN(C)CC4)cc3)nc21 [Compounds 8-21] | 51.6 nM | 7310 nM | 85.9 nM | 1160 nM | 78% | 98% | 92% | 100% | 97% | > 1000 nM
11 | CC(C)n1c(Nc2ccccc2)nc2cnc(Nc3ccc(C(=O)NN4CCN(C)CC4)cc3)nc21 [Compound 8-1] | 2 nM | 7600 nM | 105 nM | 1390 nM | 85% | 11% | 46% | 43% | 23% | > 1000 nM
12 | CC(C)n1c(NC2CCCCC2)nc2cnc(Nc3ccc(N4CCN(C)CC4)cc3)nc21 [Compounds 8-30] | 483 nM | > 10000 nM | 55.1 nM | 201 nM | 43% | 67% | 25% | 21% | 8% | > 1000 nM
13 | C=CC(=O)Nc1cccc(Nc2ncc3nc(Nc4ccccc4)n(C(C)C)c3n2)c1 [Compounds 8-38] | 0.5 nM | 644 nM | 0.7 nM | 7.3 nM | 86% | 93% | 93% | 55% | 22% | > 1000 nM
14 | CN1CCN(c2ccc(Nc3ncc4nc(Nc5ccccc5)[nH]c4n3)cc2)CC1 [Compounds 8-25] | 52.8 nM | > 10000 nM | 258 nM | 1650 nM | 32% | 78% | 45% | 21% | 13% | > 1000 nM
